Assay results taken from patent publication US20170362283A1, “NISIN-BASED COMPOUNDS AND USE THEREOF IN THE TREATMENT OF BACTERIAL INFECTIONS” (UNIVERSITEIT UTRECHT HOLDING B.V., priority 2015, published 2017).
≈ marks a conversion by molar mass, not a printed value. Like-named read-outs stand apart in the source and are kept apart here. One block for each compound: values may come before it.

Tests used:
[1] = tested on: B. subtilis
Description: (§1) Determining the MIC value is a standard technique well known to the skilled person, in particular the MIC value can be measured using method M07-A9 (CLSI standard, January 2012, Vol. 32, No. 2, “Methods for Dilution Antimicrobial Susceptibility Tests for Bacteria That Grow Aerobically”).
(§2) Different microorganisms (from glycerol stock) were plated out on blood agar and incubated at 37° C. for 24 hours. A colony was selected and 2×5 mL of TSB was inoculated. The samples and a sterile control were cultured for 16-20 hours at 37° C. Comparative compound B is nisin acting as a control. […] Comparative compounds A, D and E are also control compounds not part of the present invention.
(§3) The overnight cultures were diluted to 0.5×10^6 CFU in TSB. 50 μL of the bacterial solution was added to each well and the plates were sealed with an adhesive membrane and incubated at 37° C. for 16 hours. The next day, the plates were visually inspected for bacterial growth.

[2] = tested on: E. coli
Description: as §1, §2, §3

[3] = tested on: S. aureus
Description: as §1, §2, §3

[4] = tested on: M. luteus; assay type: cell-based
Description: as §1
(§4) Different microorganisms (from glycerol stock) were plated out on blood agar and incubated at 37° C. for 24 hours. A colony was selected and 2×5 mL of TSB was inoculated. The samples and a sterile control were cultured for 16-20 hours at 37° C. Comparative compound B is nisin acting as a control. Comparative compound C is vancomycin, also acting as a control. Comparative compounds A, D and E are also control compounds not part of the present invention.
as §3

[5] = tested on: VRE 155; assay type: cell-based; conditions: duplicate experiments
Description: as §1, §4, §3

[6] = tested on: MRSA USA300; assay type: cell-based, Staphylococcus aureus; conditions: duplicate experiments
Description: as §1, §4, §3

[7] = tested on: MRSA WKZ2; assay type: cell-based, Staphylococcus aureus; conditions: duplicate experiments
Description: as §1, §4, §3

[8] = Serum stability; assay type: in vitro ADME; conditions: human serum, 37° C., after 24 hours; read-out: stability in human serum, remained intact
Description: 2 mg/mL peptide solutions were prepared in 26% DMSO in MilliQ. Duplicate samples were prepared with […] peptide solution and […] human serum, making the final DMSO concentration 2%. The samples were incubated at 37° C., and samples were taken at t=0, 1, 2, 4 and 24 hours as follows: to 100 μL serum solution, 200 μL MeOH (containing 0.075 mg/mL ethylparaben as an internal standard) was added to precipitate the proteins. The sample was vortexed briefly and allowed to stand for 10 min at RT. The samples were then centrifuged at 13,000 rpm for 5 min, and the supernatant was taken and stored at −20° C. until analysis. Each sample was analyzed by HPLC on a C4 column. The peaks were integrated and normalized to the internal standard.

[9] = tested on: thirty VRE strains

SMILES: C=C1NC(=O)[C@H]([C@@H](C)CC)NC(=O)[C@H](NC(=O)C(=CC)NC(=O)[C@@H](N)[C@@H](C)CC)CSC[C@@H](C(=O)N[C@H]2C(=O)N3CCC[C@H]3C(=O)NCC(=O)N[C@H](C(=O)N[C@@H](CCCCN)C(=O)NCCCCCCCCCCCCCC)CS[C@H]2C)NC(=O)[C@H](CC(C)C)NC1=O [(10)]
MIC values B. subtilis ([1]; duplicate experiments): 4 µg/mL (≈ 2.97 µM)
MIC values E. coli ([2]; duplicate experiments): >64 µg/mL
MIC values S. aureus ([3]; duplicate experiments): 16 µg/mL (≈ 11.9 µM)
MIC values M. luteus ([4]; duplicate experiments): 1 to 2 µg/mL
MIC values VRE 155 [5]: 4 µg/mL (≈ 2.97 µM)
MIC values MRSA USA300 [6]: 64 µg/mL (≈ 47.6 µM)
MIC values MRSA WKZ2 [7]: 32 µg/mL (≈ 23.8 µM)
remaining at 24 h, 0.15 mg/mL [8]: > 50%
MIC ([9]; VRE strain E0013, GBR, vanA): 4 µg/mL (≈ 2.97 µM)
MIC ([9]; VRE strain E0072, NLD, vanA): 2 µg/mL (≈ 1.49 µM)
MIC ([9]; VRE strain E0300, USA, vanA): 8 to 16 µg/mL
MIC ([9]; VRE strain E0321, FRA, vanA): 2 µg/mL (≈ 1.49 µM)
MIC ([9]; VRE strain E0333, ISR, vanA): 4 µg/mL (≈ 2.97 µM)
MIC ([9]; VRE strain E0338, ITA, vanA): 4 µg/mL (≈ 2.97 µM)
MIC ([9]; VRE strain E0341, GBR, vanA): 4 µg/mL (≈ 2.97 µM)
MIC ([9]; VRE strain E0506, AUS, vanA): 8 µg/mL (≈ 5.94 µM)
MIC ([9]; VRE strain E0745, NLD, vanA): 4 µg/mL (≈ 2.97 µM)
MIC ([9]; VRE strain E1130, USA, vanA): 4 µg/mL (≈ 2.97 µM)
MIC ([9]; VRE strain E1441, GRC, vanA): 4 µg/mL (≈ 2.97 µM)
MIC ([9]; VRE strain E1679, BRA, vanA): 4 µg/mL (≈ 2.97 µM)
MIC ([9]; VRE strain E1763, BEL, vanA): 8 µg/mL (≈ 5.94 µM)
MIC ([9]; VRE strain E2297, USA, vanA): 2 µg/mL (≈ 1.49 µM)
MIC ([9]; VRE strain E2359, SGP, vanB): 2 µg/mL (≈ 1.49 µM)
MIC ([9]; VRE strain E2365, HUN, vanB): 1 µg/mL (≈ 0.743 µM)
MIC ([9]; VRE strain E2373, SRB, vanA): 4 µg/mL (≈ 2.97 µM)
MIC ([9]; VRE strain E6016, LVA, vanA): 2 to 4 µg/mL
MIC ([9]; VRE strain E7312, NLD, vanA): 2 µg/mL (≈ 1.49 µM)
MIC ([9]; VRE strain E7314, NLD, vanB): 4 µg/mL (≈ 2.97 µM)
MIC ([9]; VRE strain E7319, NLD, vanA): 2 µg/mL (≈ 1.49 µM)
MIC ([9]; VRE strain E7329, NLD, vanA): 2 µg/mL (≈ 1.49 µM)
MIC ([9]; VRE strain E7401, NLD, vanB): 4 µg/mL (≈ 2.97 µM)
MIC ([9]; VRE strain E7403, NLD, vanB): 1 µg/mL (≈ 0.743 µM)
MIC ([9]; VRE strain E7413, NLD, vanA): 4 µg/mL (≈ 2.97 µM)
MIC ([9]; VRE strain E7424, NLD, vanB): 1 to 2 µg/mL
MIC ([9]; VRE strain E7464, NLD, vanB): 4 µg/mL (≈ 2.97 µM)
MIC ([9]; VRE strain E8218, NLD, vanB): 2 µg/mL (≈ 1.49 µM)
MIC ([9]; VRE strain E8235, NLD, vanB): 4 µg/mL (≈ 2.97 µM)
MIC ([9]; VRE strain E8237, NLD, vanA): 8 µg/mL (≈ 5.94 µM)

SMILES: C=C1NC(=O)[C@H]([C@@H](C)CC)NC(=O)[C@H](NC(=O)C(=CC)NC(=O)[C@@H](N)[C@@H](C)CC)CSC[C@@H](C(=O)N[C@H]2C(=O)N3CCC[C@H]3C(=O)NCC(=O)N[C@H](C(=O)N[C@@H](CCCCN)C(=O)NC/C=C(\C)CC/C=C(\C)CCC=C(C)C)CS[C@H]2C)NC(=O)[C@H](CC(C)C)NC1=O [(12)]
MIC values B. subtilis ([1]; duplicate experiments): 4 µg/mL (≈ 2.95 µM)
MIC values E. coli ([2]; duplicate experiments): >64 µg/mL
MIC values S. aureus ([3]; duplicate experiments): 8 µg/mL (≈ 5.91 µM)
MIC values M. luteus ([4]; duplicate experiments): 2 µg/mL (≈ 1.48 µM)
MIC values VRE 155 [5]: 8 µg/mL (≈ 5.91 µM)
MIC values MRSA USA300 [6]: 16 µg/mL (≈ 11.8 µM)
MIC values MRSA WKZ2 [7]: 16 µg/mL (≈ 11.8 µM)
remaining at 24 h, 0.15 mg/mL [8]: > 50%

SMILES: C=C1NC(=O)[C@H]([C@@H](C)CC)NC(=O)[C@H](NC(=O)C(=CC)NC(=O)[C@@H](N)[C@@H](C)CC)CSC[C@@H](C(=O)N[C@H]2C(=O)N3CCC[C@H]3C(=O)NCC(=O)N[C@H](C(=O)N[C@@H](CCCCN)C(=O)NCCCCCCCCCC)CS[C@H]2C)NC(=O)[C@H](CC(C)C)NC1=O [(6)]
MIC values B. subtilis ([1]; duplicate experiments): 4 to 8 µg/mL
MIC values E. coli ([2]; duplicate experiments): 64 µg/mL (≈ 49.6 µM)
MIC values S. aureus ([3]; duplicate experiments): 16 µg/mL (≈ 12.4 µM)
MIC values M. luteus ([4]; duplicate experiments): 2 µg/mL (≈ 1.55 µM)
MIC values VRE 155 [5]: 8 µg/mL (≈ 6.2 µM)
MIC values MRSA USA300 [6]: 16 µg/mL (≈ 12.4 µM)
MIC values MRSA WKZ2 [7]: 16 µg/mL (≈ 12.4 µM)
remaining at 24 h, 0.15 mg/mL [8]: 94%

SMILES: C=C1NC(=O)[C@H]([C@@H](C)CC)NC(=O)[C@H](NC(=O)C(=CC)NC(=O)[C@@H](N)[C@@H](C)CC)CSC[C@@H](C(=O)N[C@H]2C(=O)N3CCC[C@H]3C(=O)NCC(=O)N[C@H](C(=O)N[C@@H](CCCCN)C(=O)O)CS[C@H]2C)NC(=O)[C@H](CC(C)C)NC1=O [Compound A, nisin [1-12], reference compound]
MIC values B. subtilis ([1]; duplicate experiments): >128 µg/mL
MIC values E. coli ([2]; duplicate experiments): >128 µg/mL
MIC values S. aureus ([3]; duplicate experiments): >128 µg/mL
MIC values M. luteus ([4]; duplicate experiments): 8 to 16 µg/mL
MIC values VRE 155 [5]: >128 µg/mL
MIC values MRSA USA300 [6]: >128 µg/mL
MIC values MRSA WKZ2 [7]: >128 µg/mL

MIC values B. subtilis [1]: 32 µg/mL (≈ 20.9 µM)
MIC values E. coli [2]: >64 µg/mL
MIC values S. aureus [3]: 64 µg/mL (≈ 41.7 µM)
MIC values M. luteus [4]: 2 to 4 µg/mL
SMILES: C=C1NC(=O)[C@H]([C@@H](C)CC)NC(=O)[C@H](NC(=O)C(=CC)NC(=O)[C@@H](N)[C@@H](C)CC)CSC[C@@H](C(=O)N[C@H]2C(=O)N3CCC[C@H]3C(=O)NCC(=O)N[C@H](C(=O)N[C@@H](CCCCN)C(=O)NCCCn3cc(CCC(=O)NC/C=C(\C)CC/C=C(\C)CCC=C(C)C)nn3)CS[C@H]2C)NC(=O)[C@H](CC(C)C)NC1=O [Compound (24) with R1-group (d)]
